What follows are compounds tested against T1, hyperactive mutant BKCa channels (hSlo G803D/N806K) stably expressed in AD 293 cells (Homo sapiens, UniProt Q12791, G856D/N859K) (assay: Cell-based fluorescence assay (FluxOR Potassium Ion Channel Assay) of BKCa channel activation). Details: compounds at 5 μM; n=3; vehicle 0.26.
T1 construct: expressed in transfected cells
T1 sequence (Q12791 whole entry G856D/N859K): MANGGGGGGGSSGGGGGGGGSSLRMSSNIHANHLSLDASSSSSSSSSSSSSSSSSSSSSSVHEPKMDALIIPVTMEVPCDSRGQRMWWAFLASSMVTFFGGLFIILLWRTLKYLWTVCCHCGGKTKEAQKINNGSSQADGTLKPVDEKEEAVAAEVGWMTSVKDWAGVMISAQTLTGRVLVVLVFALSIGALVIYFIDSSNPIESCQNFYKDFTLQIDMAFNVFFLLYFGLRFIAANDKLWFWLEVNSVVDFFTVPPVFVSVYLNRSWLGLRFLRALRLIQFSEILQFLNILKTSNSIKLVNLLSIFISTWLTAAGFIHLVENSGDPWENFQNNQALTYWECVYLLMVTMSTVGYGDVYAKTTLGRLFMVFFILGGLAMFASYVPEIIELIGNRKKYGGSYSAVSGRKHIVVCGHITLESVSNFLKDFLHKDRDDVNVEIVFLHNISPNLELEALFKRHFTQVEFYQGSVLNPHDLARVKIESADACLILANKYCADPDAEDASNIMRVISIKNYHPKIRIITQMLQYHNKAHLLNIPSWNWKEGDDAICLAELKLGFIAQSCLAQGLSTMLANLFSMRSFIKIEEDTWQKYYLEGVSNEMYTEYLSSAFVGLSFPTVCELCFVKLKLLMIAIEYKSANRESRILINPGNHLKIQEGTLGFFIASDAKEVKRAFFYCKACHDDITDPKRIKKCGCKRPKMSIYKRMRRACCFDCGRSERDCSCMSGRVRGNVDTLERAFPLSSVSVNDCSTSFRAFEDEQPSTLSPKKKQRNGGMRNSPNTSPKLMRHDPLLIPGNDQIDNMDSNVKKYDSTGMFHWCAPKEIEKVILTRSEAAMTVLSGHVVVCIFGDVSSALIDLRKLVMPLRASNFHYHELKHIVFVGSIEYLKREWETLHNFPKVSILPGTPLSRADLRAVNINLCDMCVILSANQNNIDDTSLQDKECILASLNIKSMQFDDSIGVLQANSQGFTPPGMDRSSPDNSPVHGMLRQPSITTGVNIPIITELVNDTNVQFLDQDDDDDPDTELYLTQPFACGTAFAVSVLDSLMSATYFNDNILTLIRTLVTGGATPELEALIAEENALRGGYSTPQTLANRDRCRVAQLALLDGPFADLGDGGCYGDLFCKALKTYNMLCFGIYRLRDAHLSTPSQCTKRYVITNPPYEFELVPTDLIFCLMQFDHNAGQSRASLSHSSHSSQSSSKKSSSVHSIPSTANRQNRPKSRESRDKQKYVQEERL

Structure (SMILES) | Activity (ΔRFU normalized by activities of LDD175)
O=C(O)c1ccc(Cl)c2c1[nH]c1c3ccc(C(F)(F)F)cc3oc12 [LDD175, reference compound] | 1.00
COC(=O)c1ccc2c(=O)[nH]c3c(C(=O)NCc4ccccc4Cl)sc(=S)n3c2c1 [TTQC-8, methyl 3-((2-chlorobenzyl)carbamoyl)-5-oxo-1-thioxo-4,5-dihydro-1H-thiazolo[3,4-a]quinazoline-8-carboxylate] | 0.84
Cc1ccc(Cl)cc1NC(=O)c1sc(=S)n2c1[nH]c(=O)c1cc3c(cc12)OCO3 [TTQC-12, N-(5-chloro-2-methylphenyl)-5-oxo-1-thioxo-4,5-dihydro-1H-[1,3]dioxolo[4,5-g]thiazolo[3,4-a]quinazoline-3-carboxamide] | 0.81
COC(=O)c1ccc2c(=O)[nH]c3c(C(=O)Nc4ccc(F)cc4F)sc(=S)n3c2c1 [TTQC-13, methyl 3-((2,4-difluorophenyl)carbamoyl)-5-oxo-1-thioxo-4,5-dihydro-1H-thiazolo[3,4-a]quinazoline-8-carboxylate] | 0.79
O=C(NCC1CCCO1)c1sc(=S)n2c1[nH]c(=O)c1cc(Br)ccc12 (stereo not drawn) [TTQC-16, 7-bromo-5-oxo-N-((tetrahydrofuran-2-yl)methyl)-1-thioxo-4,5-dihydro-1H-[1,3]thiazolo[3,4-a]quinazoline-3-carboxamide] | 0.64
CCc1ccccc1NC(=O)c1sc(=S)n2c1[nH]c(=O)c1cc3c(cc12)OCO3 [TTQC-19, N-(2-ethylphenyl)-5-oxo-1-thioxo-4,5-dihydro-1H-[1,3]dioxolo[4,5-g]thiazolo[3,4-a]quinazoline-3-carboxamide] | 0.62
O=C(NCc1ccccc1Cl)c1sc(=S)n2c1[nH]c(=O)c1cc(Br)ccc12 [TTQC-20, 7-bromo-N-(2-chlorobenzyl)-5-oxo-1-thioxo-4,5-dihydro-1H-thiazolo[3,4-a]quinazoline-3-carboxamide] | 0.62
O=C(NCc1ccccc1Cl)c1sc(=S)n2c1[nH]c(=O)c1cc(Cl)ccc12 [TTQC-21, 7-chloro-N-(2-chlorobenzyl)-5-oxo-1-thioxo-4,5-dihydro-1H-thiazolo[3,4-a]quinazoline-3-carboxamide] | 0.60
COc1cc2c(=O)[nH]c3c(C(=O)Nc4ccccc4)sc(=S)n3c2cc1OC [TTQC-22, 7,8-dimethoxy-5-oxo-N-phenyl-1-thioxo-4,5-dihydro-1H-thiazolo[3,4-a]quinazoline-3-carboxamide] | 0.57
O=C(NC1CCCC1)c1sc(=S)n2c1[nH]c(=O)c1ccc(Cl)cc12 [TTQC-23, 8-chloro-N-cyclopentyl-5-oxo-1-thioxo-4,5-dihydro-1H-thiazolo[3,4-a]quinazoline-3-carboxamide] | 0.55
COc1ccccc1NC(=O)c1sc(=S)n2c1[nH]c(=O)c1cc3c(cc12)OCO3 [TTQC-24, N-(2-methoxyphenyl)-5-oxo-1-thioxo-4,5-dihydro-1H-[1,3]dioxolo[4,5-g]thiazolo[3,4-a]quinazoline-3-carboxamide] | 0.51
CNC(=O)c1sc(=S)n2c1[nH]c(=O)c1ccc(Cl)cc12 [TTQC-25, 8-chloro-N-methyl-5-oxo-1-thioxo-4,5-dihydro-1H-thiazolo[3,4-a]quinazoline-3-carboxamide] | 0.50
O=C(Nc1ccc(Br)cc1F)c1sc(=S)n2c1[nH]c(=O)c1ccc(Cl)cc12 [TTQC-26, N-(4-bromo-2-fluorophenyl)-8-chloro-5-oxo-1-thioxo-4,5-dihydro-1H-thiazolo[3,4-a]quinazoline-3-carboxamide] | 0.49
O=C(NCC1CCCO1)c1sc(=S)n2c1[nH]c(=O)c1cc(Cl)ccc12 (stereo not drawn) [TTQC-27, 7-chloro-5-oxo-N-((tetrahydrofuran-2-yl)methyl)-1-thioxo-4,5-dihydro-1H-thiazolo[3,4-a]quinazoline-3-carboxamide] | 0.47
CCOc1ccccc1NC(=O)c1sc(=S)n2c1[nH]c(=O)c1cc(Cl)ccc12 [TTQC-28, 7-chloro-N-(2-ethoxyphenyl)-5-oxo-1-thioxo-4,5-dihydro-1H-thiazolo[3,4-a]quinazoline-3-carboxamide] | 0.45
COc1cccc(CNC(=O)c2sc(=S)n3c2[nH]c(=O)c2ccc(Cl)cc23)c1 [TTQC-29, 8-chloro-N-(3-methoxybenzyl)-5-oxo-1-thioxo-4,5-dihydro-1H-thiazolo[3,4-a]quinazoline-3-carboxamide] | 0.45
O=C(c1sc(=S)n2c1[nH]c(=O)c1cc(Br)ccc12)N1CCCCC1 [TTQC-30, 7-bromo-3-(piperidine-1-carbonyl)-1-thioxo-1H-thiazolo[3,4-a]quinazolin-5(4H)-one] | 0.37
CCc1ccc(NC(=O)c2sc(=S)n3c2[nH]c(=O)c2cc(Br)ccc23)cc1 [TTQC-32, 7-bromo-N-(4-ethylphenyl)-5-oxo-1-thioxo-4,5-dihydro-1H-thiazolo[3,4-a]quinazoline-3-carboxamide] | 0.34
COc1ccc(CNC(=O)c2sc(=S)n3c2[nH]c(=O)c2ccc(Cl)cc23)cc1 [TTQC-33, 8-chloro-N-(4-methoxybenzyl)-5-oxo-1-thioxo-4,5-dihydro-1H-thiazolo[3,4-a]quinazoline-3-carboxamide] | 0.34
COc1ccc(OC)c(NC(=O)c2sc(=S)n3c2[nH]c(=O)c2ccc(Cl)cc23)c1 [TTQC-34, 8-chloro-N-(2,5-dimethoxyphenyl)-5-oxo-1-thioxo-4,5-dihydro-1H-thiazolo[3,4-a]quinazoline-3-carboxamide] | 0.31

Next, values leading:

Activity (ΔRFU normalized by activities of LDD175) | Structure (SMILES)
0.89 | Cc1ccc2c(c1)c(=O)[nH]c1c(C(=O)Nc3cc(Cl)ccc3C)sc(=S)n12 [TTQC-7, N-(5-chloro-2-methylphenyl)-7-methyl-5-oxo-1-thioxo-4,5-dihydro-1H-thiazolo[3,4-a]quinazoline-3-carboxamide]
0.84 | Cc1ccc(NC(=O)c2sc(=S)n3c2[nH]c(=O)c2cc(Cl)ccc23)c(C)c1 [TTQC-9, 7-chloro-N-(2,4-dimethylphenyl)-5-oxo-1-thioxo-4,5-dihydro-1H-thiazolo[3,4-a]quinazoline-3-carboxamide]
0.83 | Cc1ccc(NC(=O)c2sc(=S)n3c2[nH]c(=O)c2cc(Br)ccc23)c(C)c1 [TTQC-10, 7-bromo-N-(2,4-dimethylphenyl)-5-oxo-1-thioxo-4,5-dihydro-1H-thiazolo[3,4-a]quinazoline-3-carboxamide]
0.82 | Cc1ccc2c(c1)c(=O)[nH]c1c(C(=O)Nc3ccccc3C)sc(=S)n12 [TTQC-11, 7-methyl-5-oxo-1-thioxo-N-(o-tolyl)-4,5-dihydro-1H-thiazolo[3,4-a]quinazoline-3-carboxamide]
0.76 | Cc1ccc(CNC(=O)c2sc(=S)n3c2[nH]c(=O)c2cc(Br)ccc23)cc1 [TTQC-14, 7-bromo-N-(4-methylbenzyl)-5-oxo-1-thioxo-4,5-dihydro-1H-thiazolo[3,4-a]quinazoline-3-carboxamide]
0.71 | COc1ccc(OC)c(NC(=O)c2sc(=S)n3c2[nH]c(=O)c2cc(Br)ccc23)c1 [TTQC-15, 7-bromo-N-(2,5-dimethoxyphenyl)-5-oxo-1-thioxo-4,5-dihydro-1H-thiazolo[3,4-a]quinazoline-3-carboxamide]
0.64 | COc1cc2c(=O)[nH]c3c(C(=O)Nc4cc(Cl)ccc4C)sc(=S)n3c2cc1OC [TTQC-17, N-(5-chloro-2-methylphenyl)-7,8-dimethoxy-5-oxo-1-thioxo-4,5-dihydro-1H-thiazolo[3,4-a]quinazoline-3-carboxamide]
0.63 | COc1ccc(OC)c(NC(=O)c2sc(=S)n3c2[nH]c(=O)c2cc(C)ccc23)c1 [TTQC-18, N-(2,5-dimethoxyphenyl)-7-methyl-5-oxo-1-thioxo-4,5-dihydro-1H-thiazolo[3,4-a]quinazoline-3-carboxamide]
0.34 | Cc1ccc(NC(=O)c2sc(=S)n3c2[nH]c(=O)c2cc(C)ccc23)c(C)c1 [TTQC-31, N-(2,4-dimethylphenyl)-7-methyl-5-oxo-1-thioxo-4,5-dihydro-1H-thiazolo[3,4-a]quinazoline-3-carboxamide]

The compounds below were run against T1, hyperactive mutant BKCa channels (hSlo G803D/N806K) stably expressed in AD 293 cells in the same assay as above. Details: 3 μM.
Method: AD 293 cells, which are derivatives of the commonly used HEK 293 cell line and stably express hyperactive mutant BKCa channels (hSlo G803D/N806K) to sensitively detect the effect (Lee et al., 2013), were cultured in Dulbecco' modified Eagle medium (Hyclone, Logan, Utah, […]) supplemented with 10% fetal bovine serum, and selected with 1 mg/mL Geneticin (Gibco, Amarillo, TX, USA). 20,000 cells per well were seeded on a 96-well clear-bottom black plate (Corning, New York, NY, USA) coated with poly-D-lysine (Gibco). BKCa channel activity was measured using the cell-based fluorescence assay, FluxOR Potassium Ion Channel Assay (Thermo Fisher Scientific, Waltham, MA, USA). Experimental procedures were performed according to the manufacturer's instructions. The cells were treated with test compounds dissolved in assay buffer for 15 minutes. Fluorescence was measured using a FlexStation3 multimode microplate reader (Molecular Devices, Silicon Valley, CA, USA) and SoftMax Pro (Molecular Devices). Excitation and emission wavelengths were set to 485 nm and 528 nm, respectively. Fluorescence signals were acquired every 2 seconds for 120 seconds and normalized by the relative fluorescence unit (RFU). The efficacy of a channel activator was determined by analyzing changes (ΔRFU) in the RFU for 80 seconds after channel stimulation.
Activation effects of the synthesized compounds on BKCa channels were evaluated using cell-based fluorescence assay. NS11021 was used as the positive control. The effects were determined based on the initial rate (vi) of channel activation and the apparent EC50 value obtained from fitting data of the dose-response curve. Here, Vi means change values for 4 seconds at the start of channel opening (vi={RFU(t=24 s)−RFU(t=20 s)}/4 s). […]

activation effect on the BKCa channels at a single concentration | Structure (SMILES)
significant activation effects | O=C(O)c1ccc(Cl)c2c1[nH]c1c3ccc(C(F)(F)F)cc3oc12 [LDD175, reference compound]
